Patent publication US20220047687A1, “CHEMICAL SCALPEL” (FUNDACIÓN INSTITUTO DE INVESTIGACIÓN SANITARIA FUNDACIÓN …, priority 2019, published 2022)
“Also recorded” adds a separate entry of the source.

Columns and labels:
[1] = system: peritoneal carcinomatosis (DHD cells); assay: Phase I fine-tuning of collagenase peritoneal washing on rats with peritoneal carcinomatosis
Description: For the development of the “in vivo” model, carcinomatosis was caused in 6 BDIX rats, treatment was proposed after 4 weeks. The treatment consisted of using different concentrations (370 U/mL, 2×148 U/mL, 74 U/mL, 37 U/mL, 0) of collagenase by means of peritoneal washing and it was performed in an open system by means of using a perfusion pump on 3 animals and without using any perfusion pump on 3 other animals (FIG. 3). […] The method for peritoneal washing consisted of, after giving the animals inhalation anesthesia, exposing the abdominal cavity with a longitudinal incision and filling the peritoneal cavity with collagenase diluted to the different concentrations mentioned above. Continuous washing of the peritoneum (only with Ringer's lactate) was then performed; the animals were chosen randomly in each case and treatment lasted for 10 minutes in all the animals.
Washed tissue samples as well as organs were collected for histological studies in all cases (FIG. 4).

[2] = system: peritoneal adhesions (polypropylene mesh); assay: Peritoneal adhesion model group 1 (10 small polypropylene mesh pieces): mesh release; assay type: in vivo, rat
Source text: Intervention of 5 6-week old Wistar rats of a total of 10 rats belonging to a first group (Group 1). Prior inhalation anesthesia with Forane, the animal being shaved, and aseptic measures being implemented, a minimal opening is made in the skin and the abdominal wall to implant 10 small pieces of polypropylene mesh, five on each side of the midline. They are cut into small 0.5 cm^2 pieces previously wetted with pss (physiological saline solution (0.9% ClNa).
After that (two days later than the first intervention), intervention is performed on the remaining 5 Wistar rats of group 1, and identical follow-up of weight and wound progression, with the administration of analgesia for the next 72 hours.
Four months after the application of the intraperitoneal prostheses, the animals are operated on again for the phase final of the experiment. Before that blood is drawn. First, the experiments are performed on rats belonging to group 1. The study is randomized in pairs and single-blind (investigator). […] Next, the results obtained in each of the operated rats are collected: • 1. R13, 295 g: Dictation: “To the naked eye no meshes are found. At the mesentery and terminal ileum of the cecum there is an area that is folded over and apparently comprises small pieces of mesh. There are no adhesions to the closure of the abdominal wall. Non-traumatic entry.”

[3] = system: peritoneal adhesions (polypropylene mesh); assay: Peritoneal adhesion model group 2 (4 large meshes): adhesion tear test; assay type: in vivo, rat; conditions: group 2, blind study, 0.05%; PBS control 325.76
Description: About one month later, intervention is performed on 6 additional 6-week old Wistar rats belonging to a second group (Group II). After inhalation anesthesia with Forane, the animal being shaved, and aseptic measures being implemented, laparotomy is performed with the implantation of 4 polypropylene meshes in the abdominal cavity, 2 on each side of the midline. Prior to implantation, the mesh is wetted with pss.
Secondly, experiments were performed on the rats belonging to group 2. The rats in this group were operated on, divided into two groups with 3 rats each, where a first group received 0.05% collagenase and the other placebo (PBS). After that they were subjected to an adhesion tear test, measuring the maximum pressure and the curve at which the adhesion tore. To that end, an adhesion tear measurement system was used which consisted of a high-precision digital pressure gauge that measured the pressure of a closed and rigid system with three outlets. One was a manual pressure pump, the other one was a piston with linear mobility to which clamps for pulling are fitted and which takes pressure away from the pressure gauge. The pressure needed to cause the tear of the adhesions generated in the collagenase group vs. control group was measured with this system.

[4] = system: tissue originating from patients with peritoneal carcinomatosis; assay: In vitro collagenase treatment of patient tumor tissue fragments; assay type: cell-based, human; conditions: for cells released from tissues: culture at 96 hours
Description: After obtaining authorization from the Committee for Research with Medicinal Products (PIC 75/2016_FJD) of Fundación Jiménez Díaz, the tissue originating from patients with peritoneal carcinomatosis who signed the consent was collected. Tissue fragments were included in multiwell plates and treated with 35 U/mL of collagenase for 30 minutes or for a period of 24 hrs, the cultures were then washed and cells obtained from the enzyme treatment were analyzed. The idea was to check at different times if mesothelial cells were obtained alone or tumor cells were obtained as well. FIG. 1.

[5] = system: peritoneal carcinomatosis (DHD cells); assay: Survival and necropsy of rats with carcinomatosis after peritoneal washing (groups D, E, F); assay type: in vivo, rat; conditions: group F, collagenase 37 U/ml, 3 animals
Description: The procedure was performed 2 times in the TCQ group, the first time with collagenase and after 2 minutes peritoneal washing with mitomycin C at the different concentrations to be tested was repeated. […] Blood was also collected from all the animals before sacrificing them, the blood was processed within the hour following its extraction to obtain plasma and to analyze, on one hand, the existence of the mutated KRAS oncogene (mutation in codon 12 of exon 1 expressed by DHD cells), and on the other hand the existence of collagenase traces or residues in blood after the peritoneal washes. A digital PCR was used for the KRAS oncogene localization study. For the collagenase trace study, the anonymized samples were sent to Lyposmol laboratories for the performance of specific anti-MMP-1 and anti-MMP-2 ELISAS.
Each group initially consisted of 6 rats (2×3).

[6] = system: mesothelial layer covering the intestinal tract; assay: First tests of peritoneal washing with collagenase on rat (Wistar); assay type: in vivo; conditions: optimum concentration and time (35 U/mL, 10-15 minutes)
Description: For the purpose of fine-tuning the volume of the cavity and the optimum treatment time so that no organ in the cavity will sustain any damage, twenty 6-week old Wistar rats weighing 250 grams were used, and they were tested at different concentrations of 35 U/mL of collagenase and 37 U/mL of collagenase for clinical use. Up until now, all the studies had been performed with collagenase for experimental use, nevertheless, the choice was made to use collagenase authorized for clinical use from now on, taking into account the potency equivalence calculations requested from the manufacturer. A study was then conducted using different times of treatment with collagenase from 2 minutes to 30 minutes (30, 20, 15, 10, 5, and 2) with n=2 in the 4 intermediate times.

[7] = system: peritoneal tissues; assay: First tests of peritoneal washing with collagenase on mouse (fine-tuning); conditions: for necropsy findings: mice
Description: Six 5-week old double knock-out female mice (LIPDKO), from which the lipocalin-2 gene (which affects neutrophil recruitment) and the ApoE gene (which makes it more probable for the mice to develop atherosclerosis) have been eliminated, were used. […] Each concentration was injected to 2 mice according to their weight.
Cells obtained from washing which grew in culture dishes as well as the morphology of the peritoneal tissues after washing at different concentrations were analyzed.
Once the enzyme dose was selected, the actuation time was determined in the same manner and on the same model by means of tests from 40, 30, 20, 10, and 5 minutes. Throughout this fine-tuning method, the washing liquid was collected and cultured in a complete medium to analyze the cells obtained; different organs of the animals were also collected at the same time to check for the existence at any time (concentration/time) of any organ damage and to check the condition of the peritoneal tissues.

Collagenase
Macroscopic observations ([1]; animal ID 1, 35 U/ml, PCI 13): All rather hematic. Implants
Macroscopic observations ([1]; animal ID 2, 8.75 U/ml, PCI 10, pump not used): Pump is not used. Implants do
Macroscopic observations ([1]; animal ID 3, 35 U/ml, PCI 2): Mesoderm readily separates.
Macroscopic observations ([1]; animal ID 5, 87.5 U/ml, PCI 10): All hematic. Omentum,
follow-up of the only animal left alive after treatment ([1]; rat, in vivo): showed no impairments or pain
mesh and adhesion release after washing (dictation) ([2]; 0.05% in PBS, 20 ml, 20 minutes, 37° C., single rats R11, R12, R17, R18, R19 in block order): one of the balls of hypochondrium loops breaks up with slight pulling and several pieces of mesh (3) are released; also recorded: mesh seen in the omentum is readily released with slight pulling. Another mesh in the suprapubic fat is dissected and released without damaging the fatty aggregate, 6 pieces of mesh being released with digital dissection and without bleeding; also recorded: One of the meshes contained in the ball of the terminal ileum separates completely with slight pulling; also recorded: Mesh separates from the hepatic omentum with slight pulling (there are two meshes, one of them is not readily separated successfully)
efficacy in extracting meshes ([2]; group 1, blind study randomized in pairs, 0.05%, PBS control 8%): 42%
adhesion tear pressure [3]: 188.26 millibar
effect of collagenase on tumor tissues in vitro ([4]; 35 U/mL): breaks the edges of the tissues, releasing mesothelial cells and limiting tumor vascularization
enzyme time beyond which tissues become damaged and viability of extracted cells is inhibited ([4]; in vitro): exceeding 45 minutes
cells released from tissues ([4]; tissues digested for 30 minutes): mesothelial cells released by collagenase
cells released from tissues ([4]; tissues digested for 24 hours): release of cells with tumor morphology and highly refringent mesothelial cells
Observations (necropsy) ([5]; 1 month): Localized carcinomatoses in intestine; also recorded: No adhesions
Observations (necropsy) ([5]; 2 months): Localized carcinomatoses in abdomen; also recorded: with nodules in liver. No adhesions
macroscopic and histological findings [6]: No organ or tissue impairment is observed histologically; also recorded: elimination of the mesothelial cells covering the intestine and omentum is observed but without the involvement of any organ; also recorded: thinning of the mesothelial layer covering the intestinal tract without the involvement of intermediate or internal layers
clinical observations half an hour after administration ([7]; mice 5 and 6, highest doses of collagenase): lethargic, exhibited signs of pain and a very reduced response to handling; also recorded: the abdominal wall had become detached
mortality ([7]; mice with the highest doses of collagenase): died within one hour
necropsy findings ([7]; 17.5 U/mL and 8.75 U/mL (one mouse each line)): somewhat hematic abdominal wall that has experienced the least thinning; also recorded: abdominal wall with a normal appearance and color
necropsy findings ([7]; 35 U/mL): very thin hematic abdominal wall that ruptures by itself
necropsy findings ([7]; 87.5 U/mL): hematic, practically transparent abdominal wall that completely comes off the skin and ruptures by itself when touched
clinical observations half an hour after administration ([7]; one mouse, 35 U/mL): responded well to handling but exhibited signs of pain
